Laboratory results as given in article PMC9395488, “First-in-human study of IM156, a novel potent biguanide oxidative phosphorylation (OXPHOS) inhibitor, in patients with advanced solid tumors” (Investigational New Drugs, 2022).

Tested on: patients with advanced solid tumors
Assay: First-in-human phase 1 dose-escalation study: safety, DLTs, adverse events
Assay type: in vivo
Details: for TRAE Blood Lactic Acid increased, > G3 (patients) / TRAE Blood Lactic Acid increased, All grades (patients) / TRAE Constipation, > G3 (patients) / TRAE Constipation, All grades (patients) / TRAE Decreased appetite, > G3 (patients) / TRAE Decreased appetite, All grades (patients) / TRAE Diarrhoea, > G3 (patients) / TRAE Diarrhoea, All grades (patients) / TRAE Fatigue, > G3 (patients) / TRAE Fatigue, All grades (patients) / TRAE Insomnia, > G3 (patients) / TRAE Insomnia, All grades (patients) / TRAE Nausea, > G3 (patients) / TRAE Nausea, All grades (patients) / TRAE Vomiting, > G3 (patients) / TRAE Vomiting, All grades (patients) / TRAE Abdominal Pain, > G3 (patients) / TRAE Abdominal Pain, All grades (patients): N = 3
Description: This multicenter first-in-human dose-escalation phase 1 study (clinicaltrials.gov identifier: NCT03272256) was designed to determine the MTD or RP2D and to evaluate the safety and tolerability of IM156. Secondary endpoints included PK characteristics, efficacy assessment (objective response rate [ORR], disease control rate [DCR], duration of response [DoR] and progression-free survival [PFS]). Furthermore, exploratory objectives included identification and profiling of IM156 metabolites, evaluations of exploratory PD markers of IM156, and evaluations of any potential relationship between putative biomarkers and safety/efficacy parameters of IM156. The study was conducted in accordance with Good Clinical Practice, the International Council for Harmonisation, and guidelines governing clinical study conduct and the ethical principles originating from the Declaration of Helsinki. The study was approved by each Institutional Review Board and patients provided written informed consent. Patients were enrolled at three sites in South Korea.
The initial dose and schedule of IM156 was chosen based on animal toxicology studies. […] IM156 was administered in the fasted state, with no food for at least 2 h before and 1 h after dosing.
Three DLT-evaluable patients were enrolled at each dose level. If there were no DLTs or other prohibitive adverse events (AEs), the Safety Committee was allowed to recommend escalation to the next highest dose level. If 1 DLT occurred in the first 3 DLT-evaluable patients, enrollment in that cohort was expanded to an additional 3 DLT-evaluable patients; if ≥ 2 DLTs were reported in a cohort, that dose was considered above the MTD.
Safety was assessed through vital signs, weight, laboratory assessments, physical examinations, electrocardiogram, and reporting of AEs as graded by the National Cancer Institute’s Common Terminology Criteria for Adverse Events v4.03 (NCI-CTCAE).
DLTs were defined as the following AEs if they were attributed as related to IM156: asymptomatic grade 4 neutropenia lasting for ≥ 5 days; febrile neutropenia, regardless of grade; grade 4 thrombocytopenia or grade 3 thrombocytopenia with bleeding; any grade ≥ 3 non-hematologic AE (except grade 3 hypertension and grade 3 nausea, vomiting or diarrhea for which proper measures for prevention and treatment were not implemented, and alopecia); blood lactate levels > 5 mmol; grade ≥ 2 AE prohibiting dosing of IM156 for ≥ 21 continuous days except for alterations in serum calcium or phosphorus levels. The safety analysis includes all patients who received at least one dose of study drug.
The safety population was defined as all patients who received at least one dose of IM156. The PK population was not defined in the protocol but included all patients with sufficient PK data to perform adequate PK modeling. The efficacy population included all patients who underwent at least one tumor imaging assessment while receiving IM156. Safety was assessed using descriptive statistics (e.g., DLTs, AEs, laboratory tests, physical examination, 12-lead ECG). The incidence and number of events were reported for the DLTs observed in Cycle 1 per dose group. […] Adverse events and TRAEs were standardized with the System Organ Class and the Preferred Term using the Medical Dictionary for Regulatory Activities v23.0. In addition, TEAEs, serious adverse events (SAEs), TEAE severity, and TEAEs leading to withdrawal were presented by dose group. Efficacy data were to be presented by Waterfall and Swim Lane plots. Time to event endpoints (e.g., DoR, PFS) were determined using Kaplan–Meier estimations with the median value for each endpoint summarized.

[1] = DL3 400 mg orally every other day (n=3)
[2] = DL4 800 mg orally every other day (n=3)
[3] = DL5 1200 mg orally every other day (n=3)

## NC(=Nc1ccc(OC(F)(F)F)cc1)N=C(N)N1CCCC1 [IM156]
DL3 400 mg QOD oral
  TRAE Blood Lactic Acid increased, > G3 (patients): 0
  TRAE Blood Lactic Acid increased, All grades (patients): 0
  TRAE Constipation, > G3 (patients): 0
  TRAE Constipation, All grades (patients): 0
  TRAE Decreased appetite, > G3 (patients): 0
  TRAE Decreased appetite, All grades (patients): 0
  TRAE Diarrhoea, > G3 (patients): 0
  TRAE Diarrhoea, All grades (patients): 0
  TRAE Fatigue, > G3 (patients): 0
  TRAE Fatigue, All grades (patients): 0
  TRAE Insomnia, > G3 (patients): 0
  TRAE Insomnia, All grades (patients): 1
  TRAE Nausea, > G3 (patients): 0
  TRAE Nausea, All grades (patients): 3
  TRAE Vomiting, > G3 (patients): 0
  TRAE Vomiting, All grades (patients): 1
[1]
  TEAE Adrenal insufficiency grade 1: 0
  TEAE Adrenal insufficiency grade 2: 0
  TEAE Adrenal insufficiency grade 3: 0
  TEAE Adrenal insufficiency grade 4: 0
  TEAE Anaemia grade 1: 0
  TEAE Anaemia grade 2: 0
  TEAE Anaemia grade 3: 0
  TEAE Anaemia grade 4: 0
  TEAE Appendicitis perforated grade 1: 0
  TEAE Appendicitis perforated grade 2: 0
  TEAE Appendicitis perforated grade 3: 0
  TEAE Appendicitis perforated grade 4: 0
  TEAE Back pain grade 1: 0
  TEAE Back pain grade 2: 0
  TEAE Back pain grade 3: 0
  TEAE Back pain grade 4: 0
  TEAE Cystitis grade 1: 0
  TEAE Cystitis grade 2: 0
  TEAE Cystitis grade 3: 0
  TEAE Cystitis grade 4: 0
  TEAE Dry skin grade 1: 0
  TEAE Dry skin grade 2: 0
  TEAE Dry skin grade 3: 0
  TEAE Dry skin grade 4: 0
  TEAE Flank pain grade 1: 0
  TEAE Flank pain grade 2: 0
  TEAE Flank pain grade 3: 0
  TEAE Flank pain grade 4: 0
  TEAE Hypertension grade 1: 0
  TEAE Hypertension grade 2: 1
  TEAE Hypertension grade 3: 0
  TEAE Hypertension grade 4: 0
  TEAE Hypotension grade 1: 0
  TEAE Hypotension grade 2: 0
  TEAE Hypotension grade 3: 0
  TEAE Hypotension grade 4: 0
  TEAE Insomnia grade 1: 1
  TEAE Insomnia grade 2: 0
  TEAE Insomnia grade 3: 0
  TEAE Insomnia grade 4: 0
  TEAE Pain in extremity grade 1: 1
  TEAE Pain in extremity grade 2: 0
  TEAE Pain in extremity grade 3: 0
  TEAE Pain in extremity grade 4: 0
  TEAE Pruritus grade 1: 0
  TEAE Pruritus grade 2: 0
  TEAE Pruritus grade 3: 0
  TEAE Pruritus grade 4: 0
  TEAE Psychiatric disorders grade 1: 1
  TEAE Psychiatric disorders grade 2: 0
  TEAE Psychiatric disorders grade 3: 0
  TEAE Psychiatric disorders grade 4: 0
  TEAE Purpura grade 1: 0
  TEAE Purpura grade 2: 0
  TEAE Purpura grade 3: 0
  TEAE Purpura grade 4: 0
  TEAE Urinary retention grade 1: 0
  TEAE Urinary retention grade 2: 0
  TEAE Urinary retention grade 3: 0
  TEAE Urinary retention grade 4: 0
  TEAE Urinary tract disorder grade 1: 0
  TEAE Urinary tract disorder grade 2: 0
  TEAE Urinary tract disorder grade 3: 0
  TEAE Urinary tract disorder grade 4: 0
DL4 800 mg QOD (n=3)
  TEAE Abdominal pain upper, grade 2: 1
  TEAE Abdominal pain, grade 1: 1
  TEAE Abdominal pain, grade 3: 1
  TEAE Asthenia, grade 1: 1
  TEAE Chest pain, grade 1: 1
  TEAE Constipation, grade 1: 1
  TEAE Constipation, grade 2: 1
  TEAE Cough, grade 1: 1
  TEAE Diarrhoea, grade 1: 3
  TEAE Fatigue, grade 1: 1
  TEAE Nausea, grade 1: 2
  TEAE Nausea, grade 2: 1
DL4 800 mg QOD oral
  TRAE Abdominal Pain, > G3 (patients): 0
  TRAE Abdominal Pain, All grades (patients): 1
  TRAE Blood Lactic Acid increased, > G3 (patients): 0
  TRAE Blood Lactic Acid increased, All grades (patients): 0
  TRAE Constipation, > G3 (patients): 0
  TRAE Constipation, All grades (patients): 0
  TRAE Decreased appetite, > G3 (patients): 0
  TRAE Decreased appetite, All grades (patients): 0
  TRAE Diarrhoea, > G3 (patients): 0
  TRAE Diarrhoea, All grades (patients): 3
  TRAE Fatigue, > G3 (patients): 0
  TRAE Fatigue, All grades (patients): 1
  TRAE Insomnia, > G3 (patients): 0
  TRAE Insomnia, All grades (patients): 0
  TRAE Nausea, > G3 (patients): 0
  TRAE Nausea, All grades (patients): 3
  TRAE Vomiting, > G3 (patients): 0
  TRAE Vomiting, All grades (patients): 0
[2]
  TEAE Adrenal insufficiency grade 1: 0
  TEAE Adrenal insufficiency grade 2: 0
  TEAE Adrenal insufficiency grade 3: 0
  TEAE Adrenal insufficiency grade 4: 0
  TEAE Anaemia grade 1: 0
  TEAE Anaemia grade 2: 0
  TEAE Anaemia grade 3: 0
  TEAE Anaemia grade 4: 0
  TEAE Appendicitis perforated grade 1: 0
  TEAE Appendicitis perforated grade 2: 0
  TEAE Appendicitis perforated grade 3: 0
  TEAE Appendicitis perforated grade 4: 0
  TEAE Back pain grade 1: 0
  TEAE Back pain grade 2: 2
  TEAE Back pain grade 3: 0
  TEAE Back pain grade 4: 0
  TEAE Cystitis grade 1: 0
  TEAE Cystitis grade 2: 1
  TEAE Cystitis grade 3: 0
  TEAE Cystitis grade 4: 0
  TEAE Dry skin grade 1: 0
  TEAE Dry skin grade 2: 0
  TEAE Dry skin grade 3: 0
  TEAE Dry skin grade 4: 0
  TEAE Flank pain grade 1: 0
  TEAE Flank pain grade 2: 0
  TEAE Flank pain grade 3: 0
  TEAE Flank pain grade 4: 0
  TEAE Hypertension grade 1: 0
  TEAE Hypertension grade 2: 0
  TEAE Hypertension grade 3: 0
  TEAE Hypertension grade 4: 0
  TEAE Hypotension grade 1: 0
  TEAE Hypotension grade 2: 0
  TEAE Hypotension grade 3: 0
  TEAE Hypotension grade 4: 0
  TEAE Insomnia grade 1: 0
  TEAE Insomnia grade 2: 0
  TEAE Insomnia grade 3: 0
  TEAE Insomnia grade 4: 0
  TEAE Pain in extremity grade 1: 0
  TEAE Pain in extremity grade 2: 1
  TEAE Pain in extremity grade 3: 0
  TEAE Pain in extremity grade 4: 0
  TEAE Pruritus grade 1: 0
  TEAE Pruritus grade 2: 0
  TEAE Pruritus grade 3: 0
  TEAE Pruritus grade 4: 0
  TEAE Psychiatric disorders grade 1: 0
  TEAE Psychiatric disorders grade 2: 0
  TEAE Psychiatric disorders grade 3: 0
  TEAE Psychiatric disorders grade 4: 0
  TEAE Purpura grade 1: 0
  TEAE Purpura grade 2: 0
  TEAE Purpura grade 3: 0
  TEAE Purpura grade 4: 0
  TEAE Urinary retention grade 1: 0
  TEAE Urinary retention grade 2: 1
  TEAE Urinary retention grade 3: 0
  TEAE Urinary retention grade 4: 0
  TEAE Urinary tract disorder grade 1: 0
  TEAE Urinary tract disorder grade 2: 0
  TEAE Urinary tract disorder grade 3: 0
  TEAE Urinary tract disorder grade 4: 0
DL5 1200 mg QOD (n=3)
  TEAE Abdominal pain, grade 1: 1
  TEAE Alanine aminotransferase increased, grade 3: 1
  TEAE Aspartate aminotransferase increased, grade 2: 1
  TEAE Aspartate aminotransferase increased, grade 3: 1
  TEAE Asthenia, grade 1: 1
  TEAE Blood alkaline phosphatase increased, grade 2: 1
  TEAE Blood alkaline phosphatase increased, grade 3: 1
  TEAE Constipation, grade 1: 1
  TEAE Decreased appetite, grade 1: 1
  TEAE Diarrhoea, grade 1: 1
  TEAE Diarrhoea, grade 2: 1
  TEAE Fatigue, grade 2: 1
  TEAE Gamma-glutamyltransferase increased, grade 2: 1
  TEAE Gamma-glutamyltransferase increased, grade 3: 1
  TEAE Headache, grade 1: 1
  TEAE Hypoalbuminaemia, grade 2: 1
  TEAE Hypocalcemia, grade 2: 1
  TEAE Nausea, grade 1: 1
  TEAE Nausea, grade 3: 1
  TEAE Oropharyngeal pain, grade 1: 1
  TEAE Pyrexia, grade 1: 1
  TEAE Vomiting, grade 1: 1
  TEAE Vomiting, grade 2: 1
DL5 1,200 mg QOD oral
  TRAE Abdominal Pain, > G3 (patients): 0
  TRAE Abdominal Pain, All grades (patients): 0
  TRAE Blood Lactic Acid increased, > G3 (patients): 0
  TRAE Blood Lactic Acid increased, All grades (patients): 0
  TRAE Constipation, > G3 (patients): 0
  TRAE Constipation, All grades (patients): 0
  TRAE Decreased appetite, > G3 (patients): 0
  TRAE Decreased appetite, All grades (patients): 1
  TRAE Diarrhoea, > G3 (patients): 0
  TRAE Diarrhoea, All grades (patients): 2
  TRAE Fatigue, > G3 (patients): 0
  TRAE Fatigue, All grades (patients): 0
  TRAE Insomnia, > G3 (patients): 0
  TRAE Insomnia, All grades (patients): 0
  TRAE Nausea, > G3 (patients): 1
  TRAE Nausea, All grades (patients): 2
  TRAE Vomiting, > G3 (patients): 0
  TRAE Vomiting, All grades (patients): 2
[3]
  TEAE Adrenal insufficiency grade 1: 0
  TEAE Adrenal insufficiency grade 2: 1
  TEAE Adrenal insufficiency grade 3: 0
  TEAE Adrenal insufficiency grade 4: 0
  TEAE Anaemia grade 1: 0
  TEAE Anaemia grade 2: 0
  TEAE Anaemia grade 3: 1
  TEAE Anaemia grade 4: 0
  TEAE Appendicitis perforated grade 1: 0
  TEAE Appendicitis perforated grade 2: 0
  TEAE Appendicitis perforated grade 3: 0
  TEAE Appendicitis perforated grade 4: 0
  TEAE Back pain grade 1: 0
  TEAE Back pain grade 2: 0
  TEAE Back pain grade 3: 0
  TEAE Back pain grade 4: 0
  TEAE Cystitis grade 1: 0
  TEAE Cystitis grade 2: 0
  TEAE Cystitis grade 3: 0
  TEAE Cystitis grade 4: 0
